Data set [1] in a line: Toxicity against brine shrimp. The following applies: artemia, in vivo. It is filed as organism-based.
The next data set deals with A549. Nature of the data set: Cytotoxicity against human A549 cells after 7 days by MTT assay. Type of data set: functional. The following applies: for EC50: Homo sapiens, A549, 168 h, read-out: ED50 (the source's name).
The next data set concerns HT-29. Nature of the data set: Cytotoxicity against human HT-29 cells after 7 days by MTT assay. Type of data set: functional. The note with it: HT-29, 168 h, read-out: ED50 (the source's name). (In general: Tetrazolium assays rely on reduction of a dye to a coloured formazan, in cell work by metabolically active cells.)
For the next data set, the system named is MCF7. Nature of the data set: Cytotoxicity against human MCF7 cells after 7 days by MTT assay. The following applies: for EC50: Homo sapiens, MCF7, 168 h, read-out: ED50 (the source's name). It is filed as functional.

In brackets after ≈: the same amount, converted by molar mass. Some results are limits rather than exact numbers.

In data set [1], `CCCCCCCCCCCC[C@H](O)[C@H]1CC[C@H]([C@H](O)CCC[C@H](O)[C@H](O)CCCCC[C@@H](O)CC2=C[C@H](C)OC2=O)O1` [ANNOMURICIN B] yielded an LC50 of 0.687 µg/mL (≈ 1.12 µM). In addition, the EC50 in the data set with A549 was 0.159 µg/mL (≈ 0.259 µM); in the data set on HT-29, 0.435 µg/mL (≈ 0.71 µM); with MCF7, over 1 µg/mL.

With `COc1cccc2c1C(=O)c1c(O)c3c(c(O)c1C2=O)C[C@@](O)(C(=O)CO)C[C@@H]3O[C@H]1C[C@H](N)[C@H](O)[C@H](C)O1` [DOXORUBICIN], the EC50 in the data set with A549 came to 0.0101 µg/mL (≈ 0.0186 µM); with HT-29, 0.0275 µg/mL (≈ 0.0506 µM); with MCF7 it was 0.126 µg/mL (≈ 0.232 µM).

In data set [1], `CCCCCCCCCCCC[C@H](O)[C@H]1CC[C@H]([C@H](O)CCC[C@@H](O)[C@H](O)CCCCC[C@@H](O)CC2=C[C@H](C)OC2=O)O1` [ANNOMURICIN A] displayed an LC50 of 0.625 µg/mL (≈ 1.02 µM). Besides, the values for the EC50 with A549, in the data set on HT-29 and in the data set on MCF7 were 0.33 µg/mL (≈ 0.538 µM), over 1 µg/mL and over 1 µg/mL, respectively.

In turn, `CCCCCCCCCCCC[C@H](O)[C@H]1CC[C@H]([C@H](O)CCC[C@H]2OC(C)(C)O[C@@H]2CCCCC[C@@H](O)CC2=C[C@H](C)OC2=O)O1` yielded an LC50 in data set [1] of 0.131 µg/mL (≈ 0.201 µM). The ED50 in the data set with A549 is listed as 1.58 ×10⁻⁴ ug/ml; in the data set with MCF7 it was 2.78 ×10⁻⁴ ug/ml. In addition, in the data set with HT-29, the EC50 is over 1 µg/mL.

`CCCCCCCCCCCC[C@H](O)[C@H]1CC[C@H]([C@H](O)CCC[C@@H]2OC(C)(C)O[C@@H]2CCCCC[C@@H](O)CC2=C[C@H](C)OC2=O)O1`: in data set [1], the LC50 worked out at 0.18 µg/mL (≈ 0.276 µM). Further, the ED50 was found to be 3.41 ×10⁻⁴ ug/ml with A549 and 1.41 ×10⁻⁴ ug/ml in the data set on MCF7. Also, the EC50 in the data set on HT-29 worked out at 0.0933 µg/mL (≈ 0.143 µM).

What is called LC50 is the concentration that kills 50% of the test population. High values mean a less lethal substance, low ones a more lethal substance.

Values taken from ChEMBL document CHEMBL1159253, “Two new cytotoxic monotetrahydrofuran Annonaceous acetogenins, annomuricins A and B, from the leaves of Annona muricata” (J Nat Prod, 1995).
